In patent US12121565B2, “Methods of treatment of specific cancers with NLRP3 inhibitors and anti-PD1/PD-L1 antibodies” (Duke University, priority 2019, dated 2024):

Experiments:
[1] = tested on: autochthonous BRAFV600E PTEN−/− melanoma model; experiment: Autochthonous tumor study: tumor growth, Gr-1 IHC, flow cytometry of tumor-infiltrating cells, serial biopsy qRT-PCR; type: in vivo, mouse
Protocol: B6.Cg-Braf^tm1MmcmPten^tm1Hwu Tg(Tyr-cre/ERT2 H-2^b)13Bos/BosJ transgenic mice were subdermally injected with 4-Hydroxytomoxifen (4-HT) (Sigma, H6278-50MG CCF, 38.75 μg/mouse) to induce primary melanoma development at the base of the tail. Mice were randomly assigned to treatment cohorts once tumor volumes reached 64 mm^3 (19, 30, 50). Depending on the experiment, mice were treated with the following agents: CXCR2 inhibitor (AZD5069, AstraZeneca) at 100 mg/kg per os (po) twice daily, NLRP3 inhibitor (MCC950) 10 mg/kg i.p every other day, anti-PD1 ab (BioXCell) or rat IgG2a isotype control (BioXCell) at 200 μg by i.p. injection every 3 days, Dacarbazine (50 mg/kg or 75 mg/kg, Sigma-Aldrich, D2390) by i.p. injection once every other day. Melanoma growth was monitored by orthogonal caliper measurements every 3 days.
Tumors were resected and mechanically disaggregated by a gentleMACS dissociator (Miltenyi), filtered through 70-μm filters and digested with RPMI containing collagenase IV (1 mg/mL, Sigma-Aldrich), hyaluronidase (0.1 mg/mL, Sigma-Aldrich), and deoxyribonuclease (20 U/mL, Sigma-Aldrich) on a shaker at 250 rpm at 37° C. for 1 hour (23). Resected splenic and lymph node tissues were mechanically disaggregated using 1 cc syringe plunger and 40 μm filters followed by treatment with RBC lysis buffer (Sigma-Aldrich).
Paraffin-embedded tissues were processed and stained following standard protocols and imaged with a Zeiss CLSM 700 confocal microscope. The following antibodies were used in immunohistochemistry and immunofluorescence experiments: anti-Wnt5a (1 μg/ml), anti-Ly6G (0.5 μg/ml), anti-CD8a (0.5 μg/ml) and anti-CXCL5 (1 μg/ml). Tissue was permeabilized by incubation in 0.4% Triton-X in TBS for 20 min. Goat anti-rabbit conjugated to Alexa Fluor 564 and goat anti-mouse Alexa 488 were used as secondary antibodies for the appropriate primary antibody. For immunohistochemistry, anti-rat polymers were used as secondary antibodies and Warp Red chromogen detection system (BioCare, WR806S) was used for antigen visualization.
One million cells were stained with 1 μg per million cells of each fluorochrome conjugated antibodies or commercially available dyes according to the standard protocols and analyzed using a FACSCanto II or LSRII (Becton Dickinson). Cells were stained with Fc receptor blocking antibodies followed by a live/dead discriminator (CellTrace Violet, ThermoFisher, C34571), then by conjugated antibodies for 30 min at 4° C. Cell number was calculated by hemocytometer. Flow cytometry data was analyzed using Flowjo software v10.3.
Total RNA was isolated by RNeasy Plus Mini Kit (Qiagen, 74134). […] All data were normalized to Actb expression, and relative gene expression was quantitated based on the 2_DDCt method.

[2] = tested on: BRAFV600E PTEN−/− melanoma cell line; experiment: In vitro treatment of melanoma cell line followed by Western blot, qRT-PCR, IP, ASC polymerization or ELISA; type: cell-based, mouse
Source text: Braf^V600EPten^−/− (male, BPD6 (40)), Braf^V600EPten^−/−-Wnt5a^KD (40), Braf^V600EPten^−/−-CXCL5^KD, Braf^V600EPten^−/−-PDL1^KD, Braf^V600EPten^−/−-NLRP3^KD, OVA-expressing Braf^V600EPten^−/−, BRAF^V600EPTEN^−/−-STAT3^CA, and Braf^V600EPten^−/−-NTC (40) cell lines were generated using shRNA-expressing lentiviral vectors and cultured as previously described (40): shNLRP3 (Sigma, SHCLN-NM_145827), shPDL1 (Sigma, SHCLND-NM_021893), shWnt5a (Sigma, SHCLND-NM_009524), shTLR4 (Sigma, SHCLNG-NM_025817, and pLKO.1-puro empty vector control (NTC) (Sigma, SHC001). Stable cell lines were selected by puromycin resistance (Sigma-Aldrich, P8833). Murine Lewis Lung Carcinoma (LLC) cell line is from ATCC (1704526). All cell lines were tested Mycoplasma-free by Duke University Cell Culture Facility shared services. All Braf^V600EPten^−/− cell lines and the LLC cell line were maintained at 37° C. in DMEM (Invitrogen) with 2 mM L-glutamine, supplemented with 10% fetal bovine serum, 100 units/ml penicillin. Depending on the experiment, cell lines were treated with Wnt5a (100-200 ng/ml, R&D Systems/Bio-techne, 645-WN-010), IFNγ (100 ng/ml, BioAbChem, 42-IFNg), anti-PD-L1 ab (1-2 μg/ml), Hsp70 (1 μM-10 μM, Enzo, ADI-ESP-502-D), Hsp70 inhibitor (ThermoFisher, VER155008), CLI-095 TLR4 inhibitor (3 μM-10 μM, Invivogen, tlrl-cli95), TLR2-IN-C29 TLR2 inhibitor (1 μM-10 μM, Glixx, GLXC-06203), MPLA TLR4 agonist (10 μM, Enzo, ALX-581-205-C100), LPS (Lipopolysaccharide) (10 ng, Sigma-Aldrich, L4391-1MG), ATP (1 mM-5 mM, Invivogen, tlrl-atpl), MCC950 NLRP3 inhibitor (2.5 μM-10 μM, Invivogen, inh-mcc), XAV939 β-catenin inhibitor (0.5-1.0 μM, Sigma-Aldrich, X3004-5MG), 2-Aminopurine PKR inhibitor (1 mM-5 mM, Invivogen, tlrl-apr), Verteporfin YAP inhibitor (0.1 μM-1 μM, R&D Systems/Bio-techne, 530510) or vehicle control either for 24 or 48 hrs prior to in vitro and in vivo experiments. Control siRNA (Santa Cruz, sc-37007). TLR4 siRNA (SantaCruz, sc-40261).
OT-1 CD8 cell activation was performed by incubating isolated splenocytes of OT-1 transgenic mice with IL-2 (100 U/ml) and SIINFEKL peptide (1 μg/ml, New England Peptide, BP10-915) for 3 days followed by magnetic bead CD8 purification according to the manufacturer's instructions (Miltenyi biotec, 130-104-075). Activated OT-1 CD8 cells were incubated with Braf^V600EPten^−/−-OVA cells and treated with anti-PD1 ab (1 μg/ml) for 72 hrs at a tumor cell:CD8^+ T cell ratio of 1:5. In separate experiments, Braf^V600EPten^−/− cells were treated with increasing concentrations of Dacarbazine (10 μmol-400 μmol).
Tumor tissue or cells were homogenized in NP40 lysis buffer (Sigma-Aldrich) supplemented with complete protease inhibitor and phosphatase inhibitor (Roche). Cells were lysed in Laemmli sample buffer after treatment and subjected to SDS-polyacrylamide gel electrophoresis. After transferring onto PVDF membranes (Bio-Rad), monoclonal and polyclonal primary antibodies and appropriate HRP-conjugated secondary antibodies were utilized for blotting. For the immunoprecipitation assays, cells were lysed with TBS buffer (50 mM Tris-HCl (pH 7.4), 150 mM NaCl) containing 0.5% Triton X-100, EDTA-free protease inhibitor cocktail and phosphatase inhibitor cocktail, precleared with protein A/G beads, and then incubated with 1 μg of appropriate antibodies or isotype control IgG on a rotator overnight at 4° C. then incubated with protein A/G-agarose at 4° C. for 1 hour. After 5 washes with TBS buffer, immunoprecipitated complexes were eluted in sample buffer by boiling and subjected to immunoblot analysis. Immunoblots were visualized by chemiluminescence substrate (ThermoFisher) and imaged by a ChemiDoc XRSplus system (BioRad). For the ASC polymerization assay, cells were lysed with TBS buffer containing 0.5% Triton X-100, EDTA-free protease inhibitor cocktail and phosphatase inhibitor cocktail. The lysates were centrifuged at 4,000 g at 4° C. for 15 min. […]

[3] = tested on: WM266 human melanoma cell line; experiment: In vitro treatment of human melanoma cell line followed by Western blot; type: cell-based; settings: with or without TLR4 inhibitor; in a TLR4-dependent manner
Source text: FIG. 7A-G. The PD-L1/NLRP3/HSP70 PMN-MDSC adaptive recruitment pathway in human melanoma. (A) Supernatant HSP70 and caspase-1 p20 Western blot analysis following treatment of human WM266 melanoma cells with IFN-γ with or without anti-PD-L1 Ab. Blots are representative of 3 independent experiments. (B) Wnt5A Western blot analysis of HSP70-treated human WM266 melanoma cells with or without TLR4 inhibitor. Blots are representative of 3 independent experiments. (C) HSP70 and caspase-1 p20 Western blot analysis following treatment of human WM266 melanoma cells with ATP in the absence and presence of MCC950. Blots are representative of 2 independent experiments. (D) Cytolytic T cell markers correlated with ITGAM (CD11B), CD33, and NLRP3 gene expression in the melanoma TCGA-SKCM database. (E) RNA-Seq analysis of human melanoma tissue specimens collected before anti-PD-1 Ab therapy and at the time of disease progression on anti-PD-1 Ab therapy. TPM, transcripts per million. (F) Plasma HSP70 ELISA at week 0 and week 12 in patients with advanced melanoma undergoing anti-PD-1 Ab immunotherapy. (G) Change in HSP70 plasma levels following anti-PD-1 Ab immunotherapy in patients with advanced melanoma who were responders (R) or nonresponders (NR). The response was based on week-12 CT imaging. HSP70 changes were normalized to target tumor burden based on week-12 CT imaging. […]

[4] = tested on: human melanoma tissue specimens; experiment: RNASeq of human melanoma tissue at baseline and during disease progression; type: in vivo; settings: following disease progression versus baseline
Source text: All plasma samples were collected from 17 advanced melanoma patients undergoing anti-PD-1 ab immunotherapy at week 0 and week 12 on an ongoing tissue acquisition protocol investigating checkpoint inhibitor resistance at Duke Cancer Institute (NCT02694965). Three paired tumor specimens obtained at week 0 and at the time of disease progression while undergoing anti-PD-1 ab immunotherapy were collected at Vanderbilt University Medical Center (Institutional Protocol #: 100178). Treatment responses were evaluated based on RECIST (Response Evaluation Criteria in Solid Tumors v1.1).
RNA-seq was performed by Duke Sequencing and Genomic Technologies Shared Resources. A complementary DNA library was prepared via oligo-dT-directed reverse transcription (Ambion) and subjected to deep sequencing on IlluminaHiSeq4000 (50-bp single-read sequencing; Anti-PD-1 resistance Study RNA-seq, accession number: SAMN09878780). RNA-seq data generated here and publicly available RNA-seq data were processed by Duke Center for Genomic and Computational Biology using the TrimGaloretoolkit that uses Cutadapt to trim low-quality bases and Illumina sequencing adapters from the 3′ end of the reads. Only reads that were of 20 nucleotides (nt) or longer after trimming were kept for further analysis. Reads were mapped to the GRCm38v68 version of the mouse genome and transcriptome using the STAR RNA-seq alignment tool. […]

[5] = CXCR2 inhibitor 100 mg/kg po twice daily combined with anti-PD-1 Ab

C[C@@H](Oc1cc(NS(=O)(=O)N2CCC2)nc(SCc2cccc(F)c2F)n1)[C@@H](O)CO [AZD5069]
CD8+ T cell tumor infiltration [1, 5]: enhanced
PMN-MDSC recruitment in response to anti-PD-1 Ab therapy [1, 5]: significantly suppressed
tumor progression [1, 5]: suppressed
time dependence of impact on tumor volume change rate ([1]; correlating with the period of PMN-MDSC influx into the tumor): more significant at later time points

HSP70: recombinant HSP70 (1 μM-10 μM, Enzo, ADI-ESP-502-D)
receptor dependence of HSP70 stimulation of Wnt5a expression ([2]; pharmacologic inhibitor and shRNA silencing studies): TLR4 dependent
Wnt5a expression after HSP70 stimulation (Western blot) ([2]; titrated concentrations, in a dose-dependent manner): induced upregulation
Wnt5a upregulation by HSP70 [3]: induced

IL-1β: recombinant IL-1β at titrated concentrations
induction of Wnt5a expression by tumor cells ([2]; titrated concentrations of recombinant IL-1β): no evidence

nivolumab: an anti-PD-1 antibody, available from Bristol-Myers Squibb Co
expression of myeloid markers CXCL1, CD33, ITGAM, CXCR2, S00A8 and S00A9 [4]: elevated expression

B1: rWnt5a: recombinant Wnt5a (100-200 ng/ml, R&D Systems/Bio-techne, 645-WN-010) (protein, UniProt P41221 62-380, looked up)
Protein Wnt-5a: IIGAQPLCSQLAGLSQGQKKLCHLYQDHMQYIGEGAKTGIKECQYQFRHRRWNCSTVDNTSVFGRVMQIGSRETAFTYAVSAAGVVNAMSRACREGELSTCGCSRAARPKDLPRDWLWGGCGDNIDYGYRFAKEFVDARERERIHAKGSYESARILMNLHNNEAGRRTVYNLADVACKCHGVSGSCSLKTCWLQLADFRKVGDALKEKYDSAAAMRLNSRGKLVQVNSRFNSPTTQDLVYIDPSPDYCVRNESTGSLGTQGRLCNKTSEGMDGCELMCCGRGYDQFKTVQTERCHCKFHWCCYVKCKKCTEIVDQFVCK
diminished CXCL5 expression of Wnt5a-knockdown cell line after addition of rWnt5a ([2]; BRAFV600E PTEN−/− Wnt5aKD cells, qRT-PCR): rescued
YAP stabilization (Western blot) ([2]; rWnt5a at various time points): induced
Cxcl2, Cxcl5 and Cxcl1 gene expression (qRT-PCR) ([2]; rWnt5a versus vehicle control): induced
CXCL5 expression (Western blot) ([2]; rWnt5a, in a YAP-dependent manner): stimulating
